Patent US11591323B2, “Muscarinic agonists as non-steroidal and non-opioid analgesics and methods of use thereof” (Barry University, priority 2019, dated 2023)

Tests used:
Format in all cases: cell-based
M4 muscarinic receptor = molecular target: T1, M4 muscarinic receptor (Homo sapiens, UniProt P08173); assay: accumulation of cAMP at PTX-treated CHO cells expressing M4; design: host or cells: CHO cells, stably transfected; settings: forskolin-stimulated and basal, in words
T1 sequence (P08173 1-479): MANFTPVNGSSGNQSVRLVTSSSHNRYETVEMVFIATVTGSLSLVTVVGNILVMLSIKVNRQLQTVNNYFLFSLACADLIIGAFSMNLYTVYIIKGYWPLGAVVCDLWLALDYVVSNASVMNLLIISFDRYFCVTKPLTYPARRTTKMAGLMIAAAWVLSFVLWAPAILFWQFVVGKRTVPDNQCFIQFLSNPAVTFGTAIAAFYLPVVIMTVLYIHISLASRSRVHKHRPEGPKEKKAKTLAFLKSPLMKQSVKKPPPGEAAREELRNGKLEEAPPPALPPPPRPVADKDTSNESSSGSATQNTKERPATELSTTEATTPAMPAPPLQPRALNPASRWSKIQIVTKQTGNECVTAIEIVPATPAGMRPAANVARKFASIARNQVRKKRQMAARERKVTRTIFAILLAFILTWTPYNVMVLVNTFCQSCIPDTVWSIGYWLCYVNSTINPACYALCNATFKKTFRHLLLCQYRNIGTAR
Method: (§1) To exclude the possibility that activation of the non-preferential Gs pathway was obscured by activation of the preferential Gi/o pathway, accumulation of cAMP was measured in CHO cells expressing M2 or M4 receptors where Gi/o G-proteins were inactivated by pertussis toxin (PTX) treatment (FIG. 4).
Cell culture and membrane preparation: Chinese hamster ovary (CHO) cells stably transfected with the genes of individual human variants of muscarinic receptors were purchased from Missouri S&T cDNA Resource Center (Rolla, Mo., USA). Fresh primary cell culture of smooth muscle cells (SMC) from rat aorta prepared as previously described was kindly provided by Dr. Lucie Bačáková. Primary culture of SMCs was grown to confluency in 75 cm^2 flasks in Dulbecco's modified Eagle's medium supplemented with 10% fetal bovine serum. Up to 6-times, 2 million of cells were sub-cultured. […]
(§2) Measurements of the production of cAMP and inositol phosphates: Levels of second messengers cAMP and inositol phosphates were determined in radiochemical chromatography assays as described previously. […] Samples were applied to alumina columns (1.5 g of alumina per column), washed with 2 ml ammonium acetate (pH=7.0) and eluted from columns with 4 ml ammonium acetate and measured by liquid scintillation spectrometry. […] After separation of water and organic phases, 0.6 ml of water phase was applied to Dowex columns (1.5 g of Dowex per column), washed by 20 ml of 60 mM ammonium formate/5 mM sodium borate buffer and eluted from columns with 4 ml of 1M ammonium formate/0.1 formic acid buffer and measured by liquid scintillation spectrometry.
as §1, with “[…]” for “Gs”, “11). […]” for “4).”

[1] = tested on: ventral tegmental area (M5); assay: accumulation of IPX in dissipated rat ventral tegmental area; settings: dissipated rat VTA, in words
Method: (§3) Effects of compounds 6A and 7A were then measured ex vivo in dissipated rat tissues (FIG. 5). Accumulation of IPX was measured in dissipated brain cortex (rich in M1 & M3), submaxillary gland (M1 & M3), and ventral tegmental area (M5). Native tissues express about 10-times less muscarinic receptors than CHO cell lines. Accumulation of cAMP was measured in cerebellum (M2) and striatum (M4).
(§4) Rat dissipated tissues: Suspension of dissipated tissues from rat brain cortex, cerebellum, striatum, ventral tegmental area (VTA) and submaxillary glands was prepared as described previously in supplementary methods. Adult 8-weeks old male Wistar rats were scarified by cervical dislocation in accordance with current legislative and guidelines under permission of Czech Ministry of Agriculture 16OZ23113/2017-17214. Tissues were dissected immediately. Submaxillary glands were minced by scissors. Tissues were dispersed by incubation for 15 min at 37° C. in KHB supplemented with trypsin and trituration every 5 min. Large undissipated parts were removed by cell mesh. […]
as §2
(§5) To exclude the possibility that the observed effects of compounds 6A and 7A are the result of overexpression in the heterologous system, functional response to the compounds was measured ex vivo in dissipated native rat tissues. […] Accumulation of cAMP was measured in M2-rich cerebellum and M4-rich striatum.

[2] = tested on: submaxillary gland (rich in M3); assay: accumulation of IPX in dissipated rat submaxillary gland; settings: in words
Method: as §3, §4, §2, §5

| Structure (SMILES) | change in accumulation of cAMP (M4 muscarinic receptor) | accumulation of IPX [1] | accumulation of IPX [2] |
| --- | --- | --- | --- |
| C1=CCN(Cc2cccs2)CC1.Cl [Compound 6A, 1-[(thiophen-2-yl)methyl]-1,2,3,6-tetrahydropyridin-1-ium chloride] | did not change cAMP levels | negligible increase in IPX | no increase in IPX levels |
| C[N+]1(Cc2cccs2)CC=CCC1.[I-] (stereo not drawn) [Compound 7A, 1-methyl-1-[(thiophen-2-yl)methyl]-1,2,3,6-tetrahydropyridin-1-ium iodide] | did not change cAMP levels | negligible increase in IPX | no increase in IPX levels |
| C[N+](C)(C)CCOC(N)=O [carbachol, reference compound] | about two-fold increase | profound accumulation of IPX | profound accumulation of IPX |
